From patent US20250082720A1, “NEW PEPTIDE AND USES THEREOF” (Neo Cremar Co., Ltd., priority 2021, published 2025)

Columns and labels:
[1] = test system: gastrocnemius muscle of C57BL/6 mice; test: Myoregeneration after Ac-MIF2-NH2 injection and cardiotoxin (CTX) muscle injury; format: in vivo, mouse
Source text: The male C57BL/6 mice were purchased from Dae Han Bio Link Co., Ltd., four of which per cage were kept in a temperature-controlled room with a 12-hour light cycle. The animals were fed with a standard rodent diet containing 4.0% (wt/wt) total fat (Rodent NIH-31 Open Formula Auto; Zeigler Bros., Inc., Gardners, PA, USA) and water. All experiments involving animals complied with the guidelines (YUMC-AEC2015-006) issued by the Animal Control Committee of Youngnam University's Animal Research Institute. The MSTN knock-out mouse was provided by a laboratory at Seoul National University. Normal, MSTN+/−(heterozygous), and MSTN−/−(homozygous) adipose tissues were fixed by collecting from 6-week-old mice and stored at −80° C. until required for analysis.
Muscle tissues containing paraffin was subjected to deparaffinization with xylene and ethanol and hydration, respectively, and the tissue was soaked in 0.3% hydrogen peroxide water (H2O2)/methanol for 15 minutes to stop endogenous peroxidase activity. Then, tissues were stained with hematoxylin/eosin for morphological observation or reacted with 1% normal goat serum at room temperature for 1 hour to block a reaction with non-specific antibodies, followed by a reaction with the primary antibody (1:50) at 4° C. for over 16 hours. After 16 hours, washing was performed 3 times with PBS, followed by a reaction with secondary antibody (1:100) with HRP conjugated at room temperature for 1 hour. Horse radish peroxidase-conjugated streptavidin was added to detect the expression of the protein, followed by observation under a microscope.
In order to observe the myoregeneration effect following MIF peptide injection, mice were injected with Ac-MIF2-NH2 peptide and injected/uninjected with cardiotoxin (hereinafter referred to as CTX) into the muscle, followed by observation of the morphology and regeneration of the muscle. A day after C57BL/6 mice were injected with Ac-MIF2-NH2 peptide (1.125 mM), […] cardiotoxin was injected into the gastrocnemius. Muscle tissues were sampled 7 days after CTX injection.
Paraffin-embedded muscle sections were deparaffinized using xylene, rehydrated using a concentration gradient of ethanol, stained with hematoxylin and eosin, observed under an optical microscope, magnified at 400× scale, and photographed, followed by measurement of the diameter of muscle fibers using Image J software.

C2C12 cells = test: Myodifferentiation: root canal formation and fusion index (Giemsa staining); format: cell-based, mouse; settings: 3 days
Protocol: When C2C12 cells were 70% grown, media were replaced with myodifferentiation medium added with MSTN protein (1 ng), Ac-MIF2-NH2 (1000 nM), and Ac-MIF2-NH2 (1000 nM)+MSTN protein (1 ng) from proliferation medium, followed by culture for 3 days.
When the cells grew more than 70% for differentiation of myoblasts into myocytes, they were cultured for 3 days by replacing with a differentiation medium (DMEM+2% FBS+1% P/S). The medium was replaced once daily, and the cells were cultured at 37° C.
The cell medium was removed, and the cells were washed with PBS. After washing, a methanol: PBS reagent in a 1:1 volume ratio was treated, followed by fixation for 2 minutes. Additionally, after a methanol: PBS reagent in a 2:1 volume ratio was added, fixation was followed for additional 2 minutes. After 2 minutes, 0.04% Giemsa reagent was added, and then the cells were left for 30 minutes, washed with PBS after 30 minutes, and observed under a microscope, with 3 photographs taken for each cell (300×). In the photographs taken, the number of fused nuclei in the root canal cells was counted, the number of nuclei of total cells was counted, and the number of fused nuclei was divided by the number of nuclei of the total cells to obtain the % value.

3T3L1 cells = test: Expression of FMOD, MSTN and lipogenesis-related factors in 3T3L1 cells (real-time PCR, Western blot); format: cell-based, mouse; settings: 3T3L1, compared to untreated cells, FIG. 13C
Protocol: After adding 1 ml of TRIzol™ reagent, the cells were crushed using a sonicator. After centrifugation of the crushed sample (12,000 rpm, 10 min, 4° C.), the supernatant was transferred to a new tube, added with 200 μl of chloroform, and left at room temperature for 10 minutes. After 10 minutes, centrifugation (12,000 rpm, 10 min, 4° C.) was performed, yielded a transparent supernatant. Next, 500 μl of isopropanol was added, the mixture was left for 10 minutes, and centrifugation was performed to obtain RNA pellets. […] Total RNA volume was measured by nanodrop, and the 18s and 28s bands were detected in 1.2% agarose gel. cDNA was synthesized with 2 μg of total RNA, random hexamer primers, and reverse transcriptase (25° C.: 10 min, 37° C.: 120 min, 85° C.: 5 min).
Real-time PCR (RT-PCR) was performed for detecting gene expression. For observation of real-time gene expression, gene expression was analyzed using the Power SYBR Green PCR Master Mix, which includes fluorescent materials of SYBR green (7500 Real-time PCR system). […] Gene expression values were analyzed through the analysis of c(t) values obtained through real-time PCR analysis (fold change 2-ΔΔCt formula). Setting the gene expression value of the untreated cells to 1, the gene expression value of the treated cells was calculated. […]

[2] = injected muscle, 7 days after CTX, FIG. 10B

Substance: Ac-VDFEAGDWFW-NH2 [Ac-MIF2-NH2, MIF2 peptide with acetylated N-terminus and amidated C-terminus]
- muscle weight compared to muscle without injection ([1]; 7 days after CTX injection): no significant difference
- diameter of the muscle fibers compared to muscles without injection ([1]; 7 days after CTX, FIG. 10C): increased
- muscle weight ([1]; CTX + Ac-MIF2-NH2, 7 days after CTX injection): 0.147 ± 0.163 g
- mRNA expression of Pax7, MYOD, MYOG, MYL2, and MYH in muscle ([1]; injected muscle, 7 days after CTX, FIG. 10A): significantly increased
- MSTN protein expression in muscle [1, 2]: decreased
- protein expression of Pax7, MYOD, MYOG, MYL2, and MYH in muscle [1, 2]: increased
- increase in fusion index compared to untreated cells (C2C12 cells; C2C12, differentiation medium with peptide): 14%
- root canal formation compared to untreated cells (C2C12 cells; C2C12, differentiation medium): increased
- fusion index compared to untreated cells (C2C12 cells; C2C12, myodifferentiation medium, FIG. 9): increased
- expression of FMOD; MSTN; and lipogenesis-related mRNAs and proteins (CD36, CD163, and PPARγ) (3T3L1 cells): decreased
